Source: patent publication US5164196A (priority 1990, dated 1992)

Biological target: crotoxin complex (1:1 complex of crotoxin A and crotoxin B) from Crotalus durissus terrificus venom (Crotalus durissus terrificus, UniProt P0CAS2)
Type: biochemical

crotoxin complex (1:1 complex of crotoxin A and crotoxin B) from Crotalus durissus terrificus venom, sequence (P0CAS2 whole entry, looked up, one chain of several): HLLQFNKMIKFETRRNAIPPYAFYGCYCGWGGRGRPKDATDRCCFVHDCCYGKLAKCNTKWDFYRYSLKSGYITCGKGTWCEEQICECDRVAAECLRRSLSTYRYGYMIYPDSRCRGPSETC

## O=C(CBr)c1ccc(Br)cc1 [p-bromophenacylbromide]
  reaction with p-bromophenacyl bromide: does not react
